Here are results for one compound from patent US10165789B2, “Acerola powder for use as a substitute for ascorbic acid in the agri-food field” (DIANA NATURALS, priority 2012, dated 2019).

Assay [1] is described as follows: Overall antioxidant power.
Assay [2] in a line: Antiradical activity, trapping of the free radical DPPH. The format is biochemical. The following applies: fixed concentration of 0.44 mg/ml ascorbic acid eq; tested in combination with Mg(OH)2 in the proportions present in the powder of the invention.

Marks after values point to notes of the source that are not given here.

As to `O=C1O[C@H]([C@@H](O)CO)C(O)=C1O` [Ascorbic acid], in assay [1], the Overall antioxidant power is reported as 34 g/100 g of product in ascorbic acid eq. For the same compound, the “Antiradical activity (% of trapping of the free radical DPPH)” value in assay [2] is 70.6* %.
